Results from patent publication US10526580B2, “Differentiated cell population of endothelial cells derived from human pluripotent stem cells, composition, system, kit and uses thereof” (BIOCANT-ASSOCIAÇÃO DE TRANSFERÊNCIA DE TECNOLOGIA, priority 2012, dated 2020).
Structures can show the parent of a compound that is named as a salt.

Tested on: hESC-derived ECs versus ACL cells
Assay: High-throughput screening of LOPAC library, PrestoBlue cell viability, hESC-derived ECs versus ACL cells
Format: cell-based, human
Conditions: LOPAC screen, 4.5 μM, 4 days of incubation, PrestoBlue assay
Protocol: High-throughput screening (HTS). HUAECS (Lonza) and hESC-derived ECs were cultured in EGM-2 medium while human anterior cruciate ligament cells (ACL cells) were cultured in Dulbecco's modified Eagle's medium (DMEM; PAA) supplemented with 10% FBS, 0.2 mM ascorbic acid 2-phosphate magnesium salt (Sigma Aldrich), […] streptomycin and 100 U/mL penicillin (Life Technologies). ACL cells were isolated from patients that have signed an informed consent form, in compliance with the Dutch legislation. The ethical committee of Medisch Spectrum Twente Hospital approved the collection.
The LOPAC library (Sigma-Aldrich) was used to screen embryonic endothelial-specific cytotoxic compounds. The compounds were solubilized in DMSO. The final compound concentration used in the screen was 4.5 μM in a final volume of 200 μL per well (96-well plate). HUAECs, hESC-derived EC and ACL cells were seeded at 16,000 cells/well (HUAECs and hESC-derived ECs) and 5,000 cells/well (ACL cells) and allowed to reach near confluence (approximately two days). After two days, medium was exchanged and test compounds and controls were added to the 96-well plates (all wells contained 0.25% (v/v) DMSO). After 4 days of incubation, cell viability was assessed using a PrestoBlue (Invitrogen) assay. This assay is based on a resazurin-based solution that indicates the reducing power of living cells and therefore measures indirectly their number. For each measurement, cell medium was removed and the PrestoBlue solution (10%) was added for 3 h at 37° C. upon which the absorbance was measured at 560-590 nm.
Disruption of vascular development has been directly correlated with prenatal loss, malformations and neurodevelopmental problems^41-44. […] The library was screened at a single dosage of 4.5 μM in a volume of 200 μL per well of EGM-2 medium, containing 0.25% DMSO (v/v). […] Six compounds (danazol, chlorpromazine hydrochloride, ellipticine, 3′,4′-dichlorobenzamil, fluphenazine dihydrochloride and 7-cyclopentyl-5-(4-phenoxy)phenyl-7H-pyrrolo[2,3-d]pyrimidin-4-ylamine) affected cell viability in both cells by a difference of 20% (FIG. 4B). The six compounds belong to different classes: cell cycle, ion pumps, dopamine pathway, phosphorylation and hormone signaling. The compounds selected from the primary screen were then tested against hESC-derived ECs and HUAECs at eight different concentrations to obtain a dose-response curve (FIG. 4C and FIG. 14).

SMILES | Differences (%) in cell viability (hESC-Derived ECs versus ACL cells) [%]
COc1ccc(CCN(C)CCCC(C#N)(c2ccc(OC)c(OC)c2)C(C)C)cc1OC.Cl (racemic) [(±)-Verapamil hydrochloride] | 85.1
CCCCCCCCCCCCCCCCCC(=O)NCC(COP(=O)([O-])OCC[N+](C)(C)C)OCC (racemic) [rac-2-Ethoxy-3-octadecanamido-1-propylphosphocholine] | 56.2
Cn1c(=O)c2[nH]c(-c3ccccc3)nc2n(C)c1=O [1,3-Dimethyl-8-phenylxanthine] | 68.8
COc1cc2c(cc1O)CC[C@@H]1[C@@H]2CC[C@]2(C)[C@@H](O)CC[C@@H]12 [2-methoxyestradiol] | 84.3
O=c1[nH]c(=O)n([C@H]2C[C@H](O)[C@@H](CO)O2)cc1Br [5-Bromo-2′-deoxyuridine] | 53.9
Nc1ncn([C@@H]2O[C@H](CO)[C@@H](O)[C@H]2O)c(=O)n1 [5-azacytidine] | 56.1
C[C@H]1O[C@@H](n2cc(F)c(=O)[nH]c2=O)[C@H](O)[C@@H]1O [5-fluoro-5′-deoxyuridine] | 60.8
Oc1cc(-c2ccccc2)nc2nc(Cl)ccc12 [7-Chloro-4-hydroxy-2-phenyl-1,8-naphthyridine] | 59.1
CCN(CC)C(C)C(=O)N1c2ccccc2Sc2ccccc21.Cl (stereo not drawn) [10-(alpha-Diethylaminopropionyl)-phenothiazine hydrochloride] | 56.8
CS(=O)(=O)O.Cc1c(C(=O)c2cccc3ccccc23)c2cccc3c2n1[C@H](CN1CCOCC1)CO3 [(R)-(+)-WIN 55,212-2 mesylate] | 97.7
CC[C@@]1(O)C(=O)OCc2c1cc1n(c2=O)Cc2cc3ccccc3nc2-1 [(S)-(+)-Camptothecin] | 96.3
CC1=C(C)C(=O)C(CCCCC#CCCCC#CCO)=C(C)C1=O [AA-861] | 53.3
CC(/C=C/c1cccc(Oc2ccc(F)cc2)c1)N(O)C(N)=O (stereo not shown) [BWB70C] | 55.3
C[C@H]1CCC/C=C/[C@@H]2C[C@H](O)C[C@H]2[C@H](O)/C=C/C(=O)O1 [Brefeldin A] | 95.5
C=CCc1ccccc1OCC(O)CNC1(C)CCC(C(C)(C)NC(=O)CBr)CC1 (stereo not shown) [Bromoacetyl alprenolol menthane] | 93.4
CNc1ccc2oc(C[C@H]3O[C@@]4(CC[C@H]3C)O[C@H]([C@H](C)C(=O)c3ccc[nH]3)[C@H](C)C[C@H]4C)nc2c1C(=O)O [Calcimycin] | 96.2
Clc1ccc(C(c2ccc(Cl)cc2)n2cc[n+](CC(OCc3ccc(Cl)cc3Cl)c3ccc(Cl)cc3Cl)c2)cc1 (stereo not shown) [Calmidazolium chloride] | 96.1
CC1(C(=O)O)C2CCC(O2)C1(C)C(=O)O (stereo not shown) [Cantharidic Acid] | 93.8
C[C@@]12C(=O)OC(=O)[C@]1(C)[C@H]1CC[C@@H]2O1 [Cantharidin] | 94.3
CN(C)CC/C=C1/c2ccccc2Sc2ccc(Cl)cc21 [Chlorprothixene hydrochloride] | 58.1
COc1cc2c(c(OC)c1OC)-c1ccc(OC)c(=O)cc1[C@@H](NC(C)=O)CC2 [Colchicine] | 67.4
CCn1c(=O)[nH]c2cc(Cl)c(Cl)cc21 [DCEBIO] | 73.2
Cc1cc(N)c2ccccc2[n+]1CCCCCCCCCCCCCC[n+]1c(C)cc(N)c2ccccc21 [Dequalinium analog, C-14 linker] | 96.6
Cc1cc(N)c2ccccc2[n+]1CCCCCCCCCC[n+]1c(C)cc(N)c2ccccc21 [Dequalinium dichloride] | 60.6
C[C@@H]1O[C@@H](O[C@H]2C[C@@H](O)[C@]3(CO)[C@H]4[C@H](O)C[C@]5(C)[C@@H]([C@@H]6COC(=O)C6)CC[C@]5(O)[C@@H]4CC[C@]3(O)C2)[C@H](O)[C@H](O)[C@H]1O [Dihydroouabain] | 97.0

SMILES | Differences (%) in cell viability (hESC-Derived ECs versus ACL cells) [%]
c1ccc2c(c1)[I+]c1ccccc1-2 [Diphenyleneiodonium chloride] | 69.6
CC[C@H]1CN2CCc3cc(OC)c(OC)cc3[C@@H]2C[C@@H]1C[C@H]1NCCc2cc(OC)c(OC)cc21 [Emetine dihydrochloride hydrate] | 93.4
CC(C)[C@@]1(NC(=O)[C@@H]2C=C3c4cccc5[nH]cc(c45)C[C@H]3N(C)C2)O[C@@]2(O)[C@@H]3CCCN3C(=O)[C@H](Cc3ccccc3)N2C1=O [Ergocristine] | 52.5
COc1cc([C@@H]2c3cc4c(cc3[C@@H](O[C@@H]3O[C@@H]5CO[C@@H](C)O[C@H]5[C@H](O)[C@H]3O)[C@H]3COC(=O)[C@H]23)OCO4)cc(OC)c1O [Etoposide] | 59.6
NC(=O)OCC(COC(N)=O)c1ccccc1 [Felbamate] | 50.5
CCOC(=O)C1=C(C)NC(C)=C(C(=O)OC)C1c1cccc(Cl)c1Cl (stereo not shown) [Felodipine] | 58.1
COc1cccc2c1[C@@H]1CN(CCCCn3c(=O)[nH]c4c(sc5ncc(-c6ccccc6)nc54)c3=O)C[C@@H]1CO2 [Fiduxosin hydrochloride] | 58.2
O=C1NCN(c2ccccc2)C12CCN(CCCC(c1ccc(F)cc1)c1ccc(F)cc1)CC2 [Fluspirilene] | 86.7
COc1ccc(NC(=O)c2ccc(-c3ccc(-c4noc(C)n4)cc3C)cc2)cc1N1CCN(C)CC1 [GR 127935 hydrochloride] | 66.1
COc1cc(OC)c(C=C2C(O)=Nc3ccccc32)c(OC)c1 [IC 261] | 73.0
CC(=O)[C@]1(O)Cc2c(O)c3c(c(O)c2[C@@H](O[C@H]2C[C@H](N)[C@H](O)[C@H](C)O2)C1)C(=O)c1ccccc1C3=O [Idarubicin] | 94.0
O=C1Nc2ccccc2/C1=C1/Nc2ccccc2/C1=N\O [Indirubin-3′-oxime] | 85.5
O=S1(=O)N(CCN2CC=C(c3c[nH]c4cc(F)ccc34)CC2)c2cccc3c2N1CCC3 [LY-367,265] | 51.1
CN1C[C@H](CNC(=O)OCc2ccccc2)C[C@@H]2c3cccc4c3c(cn4C)C[C@H]21 [Metergoline] | 56.5
CSc1ccc2c(c1)C(N1CCN(C)CC1)Cc1ccccc1S2 (stereo not shown) [Methiothepin mesylate] | 52.4
CC[C@H](C)C(=O)O[C@H]1CCC=C2C=C[C@H](C)[C@H](CC[C@@H]3C[C@@H](O)CC(=O)O3)[C@H]21 [Mevastatin] | 98.0
COCC(=O)O[C@]1(CCN(C)CCCc2nc3ccccc3[nH]2)CCc2cc(F)ccc2[C@@H]1C(C)C [Mibefradil dihydrochloride] | 62.2
O=C1c2c(O)ccc(O)c2C(=O)c2c(NCCNCCO)ccc(NCCNCCO)c21 [Mitoxantrone] | 94.4
CCCCCCCC/C=C\CCCCCCCC(=O)NCCc1ccc(O)c(O)c1 [N-Oleoyldopamine] | 54.8
Cc1ccc(S(=O)(=O)N[C@@H](Cc2ccccc2)C(=O)CCl)cc1 [N-p-Tosyl-L-phenylalanine chloromethyl ketone] | 63.9
CC(C)[C@H]1c2ccc(F)cc2CC[C@@]1(CCN(C)CCCc1nc2ccccc2[nH]1)OC(=O)C1CC1 [NNC 55-0396] | 98.4
O=C(Nc1ccc([N+](=O)[O-])cc1Cl)c1cc(Cl)ccc1O [Niclosamide] | 97.6
COC(=O)Nc1nc2ccc(C(=O)c3cccs3)cc2[nH]1 [Nocodazole] | 76.4
C[C@@H]1O[C@@H](O[C@H]2C[C@@H](O)[C@]3(CO)[C@H]4[C@H](O)C[C@]5(C)[C@@H](C6=CC(=O)OC6)CC[C@]5(O)[C@@H]4CC[C@]3(O)C2)[C@H](O)[C@H](O)[C@H]1O [Ouabain] | 94.6
